The record followed here is patent US8193252B1, “Mesoprogestins (progesterone receptor modulators) for the treatment and prevention of benign hormone dependent gynecological disorders” (Bayer Pharma AG, priority 1999, dated 2012).

The test system of this assay is endometriosis. Kind of assay: Treatment of endometriosis in women. The assay is classed as in vivo, human. As to conditions: women with endometriosis, 3-6 months, 5-50 mg.

For `COC[C@]1(OC)CC[C@H]2[C@@H]3CCC4=CC(=O)CCC4=C3[C@@H](c3ccc(/C=N/O)cc3)C[C@@]21C` [J867, 4-[17β-Methoxy-17α-(methoxymethyl)-3-oxoestra-4,9-dien-11β-yl]benzaldehyd-(1E)-oxim], the “pelvic pain during treatment” value is recorded as “reduction of pelvic pain was observed”.
